As to `CCN1C(=O)C2C3C=CC(CC3)C2(c2ccc(Cl)c(Cl)c2)C1=O` (stereo not drawn), the melting point (commonly the temperature of the solid-liquid transition) was 122 to 126 °C.
In the case of `Cc1ccc(S(=O)(=O)N(c2ccc(Cl)cc2C(N)=S)C(C)C)cc1` it was 189 to 191 °C; in that of `CCSc1ccc(N)c(C(=O)O)c1`, 97 to 100 °C; in that of `Oc1ccc(Nc2nc(NCc3ccco3)nc(Nc3cccc(Oc4ccccc4)c3)n2)cc1`, 80 to 83 °C.
As for `CC(C)c1noc([C@]2(C)CC[C@H](NCC(=O)N3C[C@@H](F)C[C@H]3C#N)C2(C)C)n1`, the melting point fell in the range of 82 to 85 °C.
In the case of `COc1ccc(C#CC(O)c2cccc(CN(O)C(N)=O)c2)cc1OC` (stereo not drawn) it was 146 °C; in that of `N[C@@H](Cc1ccc(C(F)(F)F)cc1)[C@H](O)c1ccc(F)cc1F` (racemic), 99 to 100 °C; in that of `OCCC1(S)C2CC3CC(C2)CC1C3` (stereo not drawn), 68 to 70 °C.
Take `CC(=O)N1c2ccccc2CC1C(N)=S` (stereo not drawn): the melting point was in the range of 194 to 195 °C.
`Cc1cc(SC2=C(O)CC(CCc3ccoc3)(C(C)C)OC2=O)c(C(C)(C)C)cc1CO` (stereo not drawn) displayed a melting point of 62 to 70 °C.
In the case of `CCCCCCCCCCCCCCOc1ccc(CN(C(C)=O)c2cccc(CO)c2)cc1` it was 65 to 67 °C; in that of `CC(C)n1nc(-c2cc(C(=O)NCCO)cnc2-c2ccccc2)ccc1=O`, 165 to 167 °C.
With `CC(C(=S)c1ccc(NC=O)nc1)S(C)=O` (stereo not drawn) the figure was 125 to 127 °C; with `N#Cc1ccc(-c2cnc3[nH]c(=O)n(CC4CCCCC4)c3n2)cc1`, 255 to 257 °C.
With `COCC1CC2CCC13CN(CC1CC1)CCC31c3cccc(O)c3OC21` (stereo not drawn) the figure was 128 to 129 °C; with `O=C(O)c1cnc2n(c1=O)CCc1ccc(O)cc1-2`, 326 to 327 °C; with `O=C(O)CCc1nn(-c2ccc(F)cc2)cc1-c1ccc(Cl)cc1`, 131 °C.
`Cc1nn(-c2cncc(F)c2)cc1[N+](=O)[O-]` displayed a melting point of 90 to 92 °C.
For the compound `COc1ccc2c(cc(CCC(=O)O)n2S(=O)(=O)c2ccccc2)n1`, the melting point was in the range of 136 to 139 °C.
With `CCCn1c(=O)c2[nH]c(C34CCC(C)(C(=O)O3)C4(C)C)nc2n(CCC)c1=O` (stereo not drawn) the figure was 200 to 201 °C.
With `Cc1c(NC(=O)c2ccc(-c3ccccc3)cc2F)ccc2cc(CN3CCCC3)cnc12`, the melting point is 166 to 168 °C.
In the case of `Cc1[nH]c(=O)ccc1C(=O)c1ccc(O)cc1` it was 280 to 282 °C; in that of `N#Cc1nn(-c2c(Cl)cc(C(F)(F)F)cc2Cl)c(Cl)c1C=O`, 145 to 146 °C.
`Cc1sc2ncc(C(=O)/C=C/c3ccccc3)n2c1C` gave a melting point of 189 to 190 °C.
With `Cc1cccc(C(=O)Nc2ccc(N3CCN(Cc4ccccc4)CC3)nc2)c1-c1ccc(C(C)C)cc1` the figure was 138 to 140 °C; with `CCCCCN(CCCCC)C(=O)N1CCN(C(=O)N(c2ccccc2)c2ccccc2)[C@H](CO)C1`, 133 to 134 °C.
With `COC(=O)c1ccc(S(C)(=O)=O)c(C(=O)NC(C)(C)CO)c1Cl`, the melting point is 70 to 72 °C.
`CCCCCCCCCCCCCCOc1ccc(OC(=O)N(C)Cc2ccccn2)cc1`: the melting point was in the range of 67 to 68 °C.
With `Nc1ccc(CCc2n[nH]c3c2c(=O)n(-c2ccccc2)c2ncccc32)cc1` the figure was > 310 °C; with `CCC1(CC)OC(=O)Nc2ccc(/C(=C/C#N)C(C)C)cc21`, 138 to 140 °C.
In the case of `Cc1ccc2c(c1)[nH]c1cc(C)ccc12` it was 280 to 281 °C.
With `N#Cc1cc(C#N)c(-c2ccc(Cl)cc2)[nH]1` the figure was 235 to 240 °C; with `CCCc1cc(Cl)c2oc(Cc3ccc(OC)cc3)c(C)c2c1OC(=O)OCC`, 99 to 100 °C; with `O=C(CCCl)c1ccc(O)c(Cl)c1Cl`, 109 to 111 °C.
`N#CCS(=O)(=O)c1ccc([N+](=O)[O-])cc1` returned a melting point of 166 to 168 °C.
Consider `O=C1CN(CCCOc2ccc(NC(=O)c3cc(F)cc(N4CCCCC4)c3)c3ccccc23)CCN1`, for which the melting point was 90 to 92 °C.
Consider `O=[N+]([O-])c1ccc(Cl)cc1Nc1ccccc1Cl`, for which the melting point amounted to 97 °C.
In the case of `CC(=O)c1ccc(NC(=O)N2CCN(c3ncnc4c(Cl)cccc34)CC2)cc1` it was 208 to 209 °C; in that of `O=C1CCCc2ccc(=O)[nH]c21`, 253 °C.
In the case of `CC(c1ccccc1[N+](=O)[O-])S(N)(=O)=O` (stereo not drawn) it was 107 to 109 °C; in that of `Oc1ncnc2c1nc(CC1CCN(CC3COc4ccccc4O3)CC1)n2Cc1ccc(F)cc1` (stereo not drawn), 201 °C.
Compound `Cc1nc(N)sc1S(=O)(=O)NC(C)(C)CO` showed a melting point of 146 °C.
`COc1ccc(C=C2c3ccccc3CCc3ccccc32)cc1NS(C)(=O)=O` displayed a melting point of 192 °C.
With `CCCCCOc1cc2c(cc1/C=C/C=C/C(C)=C/C(=O)O)C(C)(C)CCC2(C)C` the figure was 162 to 163 °C; with `CCCn1cc(-c2c(-c3ccccc3)nn3ccncc23)ccc1=O`, 165 to 166 °C.
The compound `CC1=NS(=O)(=O)N(Cc2ccncc2)C=C1` registered a melting point of 100 to 101 °C.
Turning to `COc1cc2ncn(CCO)c(=O)c2cc1OC`, the melting point amounted to 130 °C.
`CCC(C)NC(=O)n1nc(Oc2c(Cl)cc(C(F)(F)F)cc2Cl)cc1C` (stereo not drawn) gave a melting point of 73 to 75 °C.
The compound `CC1CCc2c(c(OCc3ccccn3)nn3c(-c4ccccc4)nnc23)C1` (stereo not drawn) registered a melting point of 152 to 154 °C.
`COc1ccc(Cl)cc1C1(F)C(=O)Nc2ccc(Br)cc21` (stereo not drawn) returned a melting point of 206 to 208 °C.
In the case of `CCOC(=O)n1c(C(=O)c2cccc(Cl)c2)c(NC(=O)CC)c2ccc(Cl)cc21` it was 189 to 191 °C; in that of `Cc1nc2c(OCc3c(Cl)ccc(S(=O)(=O)N4CCC[C@H]4C(=O)NCCCNC(=O)c4ccc(C#N)cc4)c3Cl)cccn2c1Cl`, 115 °C; in that of `C(=C(c1ccccc1)c1ccccc1)c1ccc(N(c2ccccc2)c2ccc(N(c3ccccc3)c3ccccc3)cc2)cc1`, 218 to 219 °C.
`CN(C(=S)c1ccc([N+](=O)[O-])cc1)C1CCN(C2CCCCC2)C1` (stereo not drawn) had a melting point of 108 to 110 °C.
As to `Cc1cc(SC2=C(O)CC(CCc3ccsc3)(C(C)C)OC2=O)c(C(C)(C)C)cc1CO` (stereo not drawn), the melting point was 63 to 70 °C.
In the case of `CCC(CC)(CC(=O)Nc1cccc(OCc2ccc3ccc(Br)cc3n2)c1)C(=O)O` it was 175 °C; in that of `COc1cc(C(=O)N2Cc3ccc(C(=O)N(C)CC(O)CO)n3Cc3ccccc32)ccc1-c1ccccc1C(F)(F)F` (stereo not drawn), 119 to 123 °C; in that of `Cc1[nH]c(=O)c(C#N)cc1-c1ccncc1`, > 300 °C.
As to `O=c1cc(CBr)n(Cc2ccccc2)cc1OCCC12CC3CC(CC(C3)C1)C2`, the melting point fell in the range of 200 to 203 °C.
`CCOC(=O)Cc1c2c(nn1CC)c(=O)[nH]c1ccccc12` registered a melting point of 233 to 235 °C.
As for `Cc1ccccc1C1(c2ccc(OC(F)F)cc2)N=C(N)N(C)C1=O` (stereo not drawn), the melting point was 85 to 90 °C.
With `CCOc1cc(C(CS(C)(=O)=O)N2C(=O)c3cccc(NS(C)(=O)=O)c3C2=O)ccc1OC` (stereo not drawn) the figure was 191 to 193 °C.
`CC(C)C1(C)NC(c2ccc3ccccc3n2)=NC1=O` (stereo not drawn) registered a melting point of 112 to 117 °C.
In turn, `CC(=NOCC=Cc1ccccc1)C(=O)Cl` returned a melting point of 120 to 121 °C.
In turn, `Cc1cc2nccn2nc1OCC(C)(C)CCS(N)(=O)=O` came in with a melting point of 161 to 162 °C.
`CN(C(C)(C)C)S(=O)(=O)c1cccnc1SCc1ccccc1` registered a melting point of 92 to 94 °C.
`Cc1ccc(CC(=O)c2sccc2S(=O)(=O)Nc2onc(C)c2Br)cc1` returned a melting point of 146 to 150 °C.
In the case of `C=C(C)C=COCC1CCn2c(nc3ccccc32)S1` (stereo not drawn) it was 56 to 60 °C; in that of `CCCCNC(=O)N(C)c1cccc(-c2ccc(C=C(OC)C(=O)O)cc2OCCCC)c1`, 106 °C; in that of `OC1c2cc(OCc3nc4cc(F)ccc4s3)ccc2OCC1Oc1ccccc1` (stereo not drawn), 144 to 145 °C.
With `CN1Cc2c(n(-c3ccc(F)cc3)c3ccc(F)cc23)C1` the figure was 160 to 165 °C; with `Cc1cc(=O)n(-c2ccc(Cl)cc2F)c(=O)[nH]1`, > 220 °C; with `CCC(OC(=O)C1CC1)c1ccc(Cl)c2nc3n(c12)CCCN3c1ccc(Cl)cc1Cl` (stereo not drawn), 159 to 161 °C.
In turn, `Cc1nc(-c2ccc(C#N)cc2)sc1C(=O)N(CC(=O)O)[C@H](C)[C@](O)(Cn1cncn1)c1ccc(F)cc1F` showed a melting point of 153 to 159 °C.
Compound `C=C(CN(C)C)c1ccc(NC(=O)NC)cc1` registered a melting point of 123 to 124 °C.
In the case of `COc1cccc(CNC(=O)c2nc3scc(CNC(=O)c4ccc(C(=O)O)cc4)c3c(=O)[nH]2)c1` it was 285 to 286 °C; in that of `N#CCCNC(=O)c1cccc(-c2ccc3c(c2)C(Oc2ccc(Cl)cc2Cl)CCC3)c1` (stereo not drawn), 150 to 151 °C.
In the case of `COc1c(CC(=O)O)cccc1Oc1ccccc1C` it was 90 to 92 °C.
With `CC(C)=CCn1c(-c2c(F)cccc2F)nc2c(C)cccc21`, the melting point fell in the range of 78 to 79 °C.
`N#Cc1sc2ccccc2c1Cl` yielded a melting point of 124 to 125 °C.
In turn, `CN(C)n1cc(C(=O)NCc2ccc(Cl)cc2)c(=O)c2cc(C#CCO)ccc21` registered a melting point of 210 to 214 °C.
For the compound `COC(=O)C(Cc1ccccc1)NC(=O)C(CC(=O)O)NC(=O)C(N)C(C)C(=O)O` (stereo not drawn), the melting point lay in the range of 172 to 175 °C.
Consider `COc1cc(-c2nc(C)c(C(=O)O)s2)cc(OC)c1OC`, for which the melting point is 205 to 207 °C.
In the case of `O=CN(c1cc(Cl)cc(Cl)c1)c1cc(S(=O)(=O)NC(c2ccccc2)c2ccccc2)ccc1Cl` it was 196 to 198 °C; in that of `O=C(O)c1nc(Sc2ccccc2)ccc1Sc1ccccc1`, 131 to 132 °C.
With `O=C(O)C(=O)c1ccc(OCCOC2CCc3ccccc3C2)cc1` (stereo not drawn) the figure was 119 to 120 °C; with `CC(C)(C)c1ccc(Cn2cc(C(=O)C(=O)O)c3cc(-c4ccc(Cl)cc4)ccc32)cc1`, 183 to 184 °C; with `CC1CCCN(c2cc3nc(C(C)(C)C)sc3cc2N=C=S)C1` (stereo not drawn), 47 to 52 °C.

(Values after a melting point compilation (Tetko et al.; mined from patent text by program, amines drawn as free bases though some values may be those of a salt).)
